Measurements from US10040798B2, “Pyrrolopyridazine inhibitors of IRAK4 activity” (MERCK SHARP & DOHME CORP., priority 2015, dated 2018).
pIC50: −log10 of the molar value. Structures can show the parent of a compound that is named as a salt.

What follows are compounds tested against IRAK4 (Homo sapiens (Human), UniProt Q9NWZ3) (assay: IRAK4 Kinase Assay (IMAP fluorescence polarization)). Conditions: 0.5 nM GST tagged IRAK4, 100 μM ATP, 30 minutes at 25° C., IMAP FP.
Format: biochemical
Method: The kinase activity of IRAK4 is determined by its ability to catalyze the phosphorylation of a fluorescent polypeptide substrate. The extent of phosphorylation is measured using the IMAP technology (Molecular Devices) where the phosphorylated fluorescent substrate binds to the large M (III)-based nanoparticles which reduces the rotational speed of the substrate and thus increases its fluorescent polarization (FP).
20 μL reaction mixture contains 10 mM TriHCl, pH 7.2, 0.5 nM GST tagged IRAK4 (SignalChem), 100 nM fluorescent peptide substrate (RP7030, Molecular Devices), 100 μM ATP, 1 mM DDT, 1 mM MgCl2, and 0.01% Tween 20. The reaction is initiated by the addition of ATP. After incubation for 30 minutes at 25° C., 60 μL of Progressive IMAP Reagent (Molecular Devices) is added to stop the reaction. Change in RP7030's FP is determined by a FP reader (Analyst HT, LJL BioSystems).

Chain of IRAK4 (Q9NWZ3 whole entry): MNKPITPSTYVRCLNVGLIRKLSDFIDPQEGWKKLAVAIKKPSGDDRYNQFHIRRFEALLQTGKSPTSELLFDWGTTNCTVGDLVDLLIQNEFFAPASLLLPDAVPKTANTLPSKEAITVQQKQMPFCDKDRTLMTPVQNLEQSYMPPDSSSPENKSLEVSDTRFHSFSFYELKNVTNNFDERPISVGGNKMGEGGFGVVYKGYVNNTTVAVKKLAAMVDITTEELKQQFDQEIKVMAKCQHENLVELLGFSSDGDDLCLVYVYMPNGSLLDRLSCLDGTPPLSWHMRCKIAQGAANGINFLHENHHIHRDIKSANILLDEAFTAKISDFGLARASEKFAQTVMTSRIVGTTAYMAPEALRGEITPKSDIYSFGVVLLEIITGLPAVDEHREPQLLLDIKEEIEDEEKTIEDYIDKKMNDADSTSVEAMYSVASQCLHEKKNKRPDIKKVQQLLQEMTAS

Row | pIC50 | Compound
1 | 6.19 | CC(C)(C)n1cc(NC(=O)c2ccc3ccc(N[C@@H]4CCCC[C@@H]4O)nn23)c(C(F)F)n1 [Example 54, N-[1-tert-butyl-3-(difluoromethyl)-1H-pyrazol-4-yl]-2-{[(1R,2S)-2-hydroxycyclohexyl]amino}pyrrolo[1,2-b]pyridazine-7-carboxamide trifluoroacetate]
2 | 7.47 | Cn1cc(NC(=O)c2ccc3ccc(N[C@@H]4CCCC(F)(F)[C@@H]4N)nn23)c(C(F)F)n1 [Example 28, 2-{[(1R,2R)-2-amino-3,3-difluorocyclohexyl]amino}-N-[3-(difluoromethyl)-1-methyl-1H-pyrazol-4-yl]pyrrolo[1,2-b]pyridazine-7-carboxamide trifluoroacetate]
3 | 5.92 | O=C(Nc1ccsc1C(F)(F)F)c1ccc2ccc(N3C[C@@H]4CC[C@H]3CN4)nn12 (single isomer, unassigned) [Example 113, 2-[(1S,4S)- or (1R,4R)-2,5-diazabicyclo[2.2.2]oct-2-yl]-N-[2-(trifluoromethyl)thiophen-3-yl]pyrrolo[1,2-b]pyridazine-7-carboxamide trifluoroacetate]
4 | 5.20 | O=C(Nc1ccsc1Cl)c1ccc2ccc(N[C@@H]3CCCC[C@@H]3O)nn12 [Example 91, N-(2-chlorothiophen-3-yl)-2-{[(1R,2S)-2-hydroxycyclohexyl]amino}pyrrolo[1,2-b]pyridazine-7-carboxamide]
5 | 5.69 | N[C@@H]1[C@H](Nc2ccc3ccc(C(=O)Nc4ccccc4Cl)n3n2)CCCC1(F)F [Example 92, 2-{[(1R,2R)-2-amino-3,3-difluoro-cyclohexyl]amino}-N-(2-chlorophenyl)pyrrolo[1,2-b]pyridazine-7-carboxamide trifluoroacetate]
6 | 6.28 | N#Cc1sccc1NC(=O)c1ccc2ccc(N[C@@H]3CCCC(F)(F)[C@@H]3N)nn12 [Example 98, 2-{[(1R,2R)-2-amino-3,3-difluorocyclohexyl]amino}-N-(2-cyanothiophen-3-yl)pyrrolo[1,2-b]pyridazine-7-carboxamide trifluoroacetate]
7 | 6.24 | N#Cc1ccccc1NC(=O)c1ccc2ccc(N3CCNCC3)nn12 [Example 101, N-(2-cyanophenyl)-2-piperazin-1-ylpyrrolo[1,2-b]pyridazine-7-carboxamide trifluoroacetate]
8 | 6.87 | N#Cc1cscc1NC(=O)c1ccc2ccc(N3CC4CCC3CN4)nn12 (centres unmarked) [Example 74, N-(4-cyanothiophen-3-yl)-2-(2,5-diazabicyclo[2.2.2]oct-2-yl)pyrrolo[1,2-b]pyridazine-7-carboxamide trifluoroacetate]
9 | 7.05 | N#Cc1ccccc1NC(=O)c1ccc2ccc(N[C@@H]3CCCCNC3)nn12 (single isomer, unassigned) [Example 108, 2-[(3R)- or (3S)-azepan-3-ylamino]-N-(2-cyanophenyl)pyrrolo [1,2-b]pyridazine-7-carboxamide trifluoroacetate]
10 | 6.33 | N[C@H]1CCCC[C@H]1Nc1ccc2ccc(C(=O)Nc3ccccc3C(F)F)n2n1 [Example 112, 2-{[(1R,2S)-2-aminocyclohexyl]amino}-N-[2-(difluoromethyl)phenyl]pyrrolo[1,2-b]pyridazine-7-carboxamide trifluoroacetate]
11 | 6.66 | N[C@H]1CCCC[C@H]1Nc1ccc2ccc(C(=O)Nc3ccsc3C(F)(F)F)n2n1 [Example 116, 2-{[1R,2S)-2-aminocyclohexyl] amino}-N-[2-(trifluoromethyl) thiophen-3-yl] pyrrolo[1,2-b]pyridazine-7-carboxamide trifluoroacetate]
12 | 6.87 | Cn1ncc(NC(=O)c2ccc3ccc(N[C@@H]4CCCC[C@@H]4N)nn23)c1C(F)(F)F [Example 45, 2-{[(1R,2S)-2-aminocyclohexyl]amino}-N-[1-methyl-5-(trifluoromethyl)-1H-pyrazol-4-yl]pyrrolo[1,2-b]pyridazine-7-carboxamide trifluoroacetate]
13 | 5.70 | O=C(Nc1ccsc1C(F)(F)F)c1ccc2ccc(N3CCCNCC3)nn12 [Example 115, 2-(1,4-diazepan-1-yl)-N-[2-(trifluoromethyl)thiophen-3-yl]pyrrolo[1,2-b]pyridazine-7-carboxamide trifluoroacetate]
14 | 6.20 | O=C(Nc1ccsc1Cl)c1ccc2ccc(N3CCCNCC3)nn12 [Example 66, N-(2-chlorothiophen-3-yl)-2-(1,4-diazepan-1-yl)pyrrolo[1,2-b]pyridazine-7-carboxamide trifluoroacetate]
15 | 6.86 | Cn1cc(NC(=O)c2ccc3ccc(N[C@@H]4CCCC(F)(F)[C@@H]4N)nn23)c(Cl)n1 [Example 48, 2-{[(1R,2R)-2-amino-3,3-difluoro-cyclohexyl]amino}-N-(3-chloro-1-methyl-1H-pyrazol-4-yl)pyrrolo[1,2-b]pyridazine-7-carboxamide acetate]
16 | 9.30 | Cn1cc(NC(=O)c2ccc3ccc(N4CCC[C@@H](N)C4)nn23)c(C(F)F)n1 [Example 13, 2-[(3R)-3-aminopiperidin-1-yl]-N-[3-(difluoromethyl)-1-methyl-1H-pyrazol-4-yl]pyrrolo[1,2-b]pyridazine-7-carboxamide trifluoroacetate]
17 | 6.56 | Cn1cc(NC(=O)c2ccc3ccc(N[C@@H]4CCCC(F)(F)[C@@H]4N)nn23)c(Br)n1 [Example 32, 2-{[(1R,2R)-2-amino-3,3-difluoro-cyclohexyl]amino}-N-(3-bromo-1-methyl-1H-pyrazol-4-yl)pyrrolo[1,2-b]pyridazine-7-carboxamide trifluoroacetate]
18 | 6.72 | N#Cc1cscc1NC(=O)c1ccc2ccc(N3CCCNCC3)nn12 [Example 68, N-(4-cyanothiophen-3-yl)-2-(1,4-diazepan-1-yl)pyrrolo[1,2-b]pyridazine-7-carboxamide trifluoroacetate]
19 | 7.96 | Cn1cc(NC(=O)c2ccc3ccc(N[C@@H]4CCCC[C@@H]4O)nn23)c(C(F)F)n1 [Example 20, N-[3-(difluoromethyl)-1-methyl-1H-pyrazol-4-yl]-2-{[(1R,2S)-2-hydroxycyclohexyl]amino}pyrrolo[1,2-b]pyridazine-7-carboxamide trifluoroacetate]
20 | 6.91 | Cn1cc(NC(=O)c2ccc3ccc(N[C@@H]4CCCC[C@@H]4O)nn23)c(C(F)(F)F)n1 [Example 5, 2-{[(1R,2S)-2-hydroxycyclo-hexyl]amino}-N-[1-methyl-3-(trifluoromethyl)-1H-pyrazol-4-yl]pyrrolo[1,2-b]pyridazine-7-carboxamide trifluoroacetate]
21 | 5.66 | N[C@@H]1[C@H](Nc2ccc3ccc(C(=O)Nc4cscc4Cl)n3n2)CCCC1(F)F [Example 87, 2-{[(1R,2R)-2-amino-3,3-difluoro-cyclohexyl]amino}-N-(4-chlorothiophen-3-yl)pyrrolo[1,2-b]pyridazine-7-carboxamide acetate]
22 | 8.70 | Cn1cc(NC(=O)c2ccc3ccc(N4CCNCC4)nn23)c(C(F)F)n1 [Example 14, N-[3-(difluoromethyl)-1-methyl-1H-pyrazol-4-yl]-2-piperazin-1-ylpyrrolo[1,2-b]pyridazine-7-carboxamide trifluoroacetate]
23 | 6.94 | Cn1cc(NC(=O)c2ccc3ccc(N4C[C@H]5CNC[C@@H]4C5)nn23)c(C(F)(F)F)n1 [Example 123, 2-[(1S,5R)-(1R,5S)-3,6-diazabicyclo[3.2.1]oct-6-yl]-N-[1-methyl-3-(trifluoromethyl)-1H-pyrazol-4-yl]pyrrolo[1,2-b]pyridazine-7-carboxamide]
